According to US20080222745A1, “Colcemid-Treatment of Oocytes to enhance Nuclear Transfer Cloning” (Utah State University, priority 2007, published 2008):
Several values for one entry are separate records, joined by “and”; a condition that tells them apart may be missing. Identical values can stand only once. Entries after “also recorded” stand apart in the source; their conditions may differ. Like-named read-outs stand apart in the source and are kept apart here. Marks after values point to notes of the source that are not given here.

Assays:
bovine oocytes [1] = conditions: colcemid vs control, 15-22 hr maturation
Protocol: Oocytes were vortexed in 1 ml PB1+ containing 10 mg/ml hyaluronidase for 4 minutes to completely remove cumulus cells. Oocytes of good quality were selected for use. Oocytes were loaded with Ca^2+ indicator by incubation in 2 μM Fura-2 AM ester (Molecular Probes, Eugene, Oreg.) and 0.02% Pluronic F-127 (Molecular Probes) in Ca^2+- and Mg^2+-free phosphate buffered saline (Hyclone Laboratories) containing 0.32 mM sodium pyruvate, 5.55 mM glucose, 3 mg/ml BSA, and 100 μM EGTA at 39° C. in darkness for 45 min. After loading with indicator, oocytes were washed extensively with PB1+ (phosphate-buffered saline with Ca^2+ and Mg^2+ plus 5.55 mM glucose, 0.32 mM sodium pyruvate, 3 mg/ml BSA) and maintained in this solution at 39° C. until use.
Fura-2 loaded oocytes were transferred to a 50-μl drop of PB1+ medium covered with mineral oil.

bovine oocytes [2] = experiment: Membrane projections of bovine oocytes after colcemid treatment; assay type: cell-based; conditions: for oocytes exhibiting an obvious membrane projection: colcemid treatment for 2 to 4 hr
bovine NT blastocysts = experiment: Chromosomal analysis and cell number count of Day 7 NT blastocysts; assay type: cell-based; conditions: for No. cells blastocysts (mean ± SD): oocytes matured 16-17 hours, 0.2 μg/ml for 2-3 hours; for Cell number of blastocysts (mean ± SD): 0.2 μg/ml for 2-3 hr
Protocol: Day 7 blastocysts were prepared and examined for their cytogenetic composition and the number of nuclei contained was verified. […] Chromosomes were examined at 1000× under a Zeiss microscope, and the chromosome composition was determined for each blastocyst.

[3] = tested on: NT embryos transferred to recipient cows; experiment: Pregnancy rates after transfer of NT embryos to recipient cows; assay type: in vivo, bovine
Excerpt: FIG. 1 is a diagram showing pregnancy rates throughout gestation following transfer of NT embryos derived from colcemid-treated versus untreated heifer cytoplasts. […] Six to seven days after NT, morulae and blastocysts were transferred to recipient cows. The solid bars show pregnancy rates for nuclear transfer embryos generated from heifer oocytes which were not treated with colcemid.
The day 6-7 morulae and blastocysts were selected and transferred to recipient cows. A total of 191 recipient cows were used for embryo transfer. Forty cows received embryos from colcemid-treated oocytes and 151 cows received embryos from non-treated oocytes. Pregnancy rates were monitored throughout gestation.

CN[C@H]1CCc2cc(OC)c(OC)c(OC)c2-c2ccc(OC)c(=O)cc21 [colcemid, N-deacetyl-N-methylcolchicine]
intracellular calcium transients, trend between treatments (bovine oocytes [1]): No trend | No. oocytes with blebs or Pb1 + bleb (%) (bovine oocytes [2]; oocytes with PB1 matured 16-17 hr, 0.2 μg/ml for 2 h, 26 of 36 oocytes): 26 (72.2) % | No. oocytes with blebs or Pb1 + bleb (%) (bovine oocytes [2]; oocytes with PB1 matured 16-17 hr, 0.2 μg/ml for 4 h, 31 of 39 oocytes): 31 (79.5) % | No. oocytes with blebs or Pb1 + bleb (%) (bovine oocytes [2]; oocytes with PB1 matured 16-17 hr, 0.4 μg/ml for 2 h, 29 of 38 oocytes): 29 (76.3) % | No. oocytes with blebs or Pb1 + bleb (%) (bovine oocytes [2]; oocytes with PB1 matured 16-17 hr, 0.4 μg/ml for 4 h, 28 of 38 oocytes): 28 (73.6) % | oocytes exhibiting an obvious membrane projection (bovine oocytes [2]; oocytes with PB1 matured 16-17 hr): approximately 80% | No. oocytes with blebs or Pb1 + bleb (%) (bovine oocytes [2]; oocytes without PB1 matured 16-17 hr, 0.1 μg/ml for 1 h, 32 of 46 oocytes): 32 (69.6) % | No. oocytes with blebs or Pb1 + bleb (%) (bovine oocytes [2]; oocytes without PB1 matured 16-17 hr, 0.1 μg/ml for 2 h, 39 of 48 oocytes): 39 (81.2) % | No. oocytes with blebs or Pb1 + bleb (%) (bovine oocytes [2]; oocytes without PB1 matured 16-17 hr, 0.1 μg/ml for 4 h, 43 of 46 oocytes): 43 (93.4) % | No. oocytes with blebs or Pb1 + bleb (%) (bovine oocytes [2]; oocytes without PB1 matured 16-17 hr, 0.2 μg/ml for 2 h, 33 of 42 oocytes): 33 (78.6) % | No. oocytes with blebs or Pb1 + bleb (%) (bovine oocytes [2]; oocytes without PB1 matured 16-17 hr, 0.2 μg/ml for 4 h, 38 of 42 oocytes): 38 (90.5) % | No. oocytes with blebs or Pb1 + bleb (%) (bovine oocytes [2]; oocytes without PB1 matured 16-17 hr, 0.4 μg/ml for 2 h, 35 of 43 oocytes): 35 (81.3) % | No. oocytes with blebs or Pb1 + bleb (%) (bovine oocytes [2]; oocytes without PB1 matured 16-17 hr, 0.4 μg/ml for 4 h, 34 of 41 oocytes): 34 (82.9) % | oocytes exhibiting an obvious membrane projection (bovine oocytes [2]; oocytes without PB1 matured 16-17 hr): 80-93% | Cell numbers of blastocysts vs control groups (bovine NT blastocysts; colcemid-treated groups vs control groups): numerically higher; also recorded: numerical higher | No. cells blastocysts (mean ± SD) (bovine NT blastocysts; culture system BCR): 50.3 ± 7.6^c | No. cells blastocysts (mean ± SD) (bovine NT blastocysts; culture system SCR and co-culture): 107.8 ± 21.6^a | No. cells blastocysts (mean ± SD) (bovine NT blastocysts; culture system SCR): 70.5 ± 7.8^b | cell number of blastocysts vs untreated (bovine NT blastocysts; embryos cultured in SCR and BCR systems): increased | Cell number of blastocysts (mean ± SD) (bovine NT blastocysts; oocytes matured 14-15 hr, without PB1): 113 ± 10 | Cell number of blastocysts (mean ± SD) (bovine NT blastocysts; oocytes matured 16-17 hr, with PB1): 103 ± 20 | Cell number of blastocysts (mean ± SD) (bovine NT blastocysts; oocytes matured 16-17 hr, without PB1): 118 ± 17 | Cell number of blastocysts (mean ± SD) (bovine NT blastocysts; oocytes matured 19-20 hr, with PB1): 91 ± 9 | Cell number of blastocysts (mean ± SD) (bovine NT blastocysts; oocytes matured 19-20 hr, without PB1): 107 ± 11 | term rate ([3]; MI heifer oocytes matured 16-17 hr, 0.2 or 0.4 μg/ml colcemid 2-3 hr, 40 recipient cows, non-treated group 3.3%): 12.5% | pregnancy rates vs non-treated group ([3]; at 60, 90, 180 days, P<0.05): Higher | Blastocyst (%) (bovine NT embryos; Table 3: oocytes matured 16-17 hr, 0.2 μg/ml for 2-3 h, 38 of 90 embryos cultured): 38 (42.2)^a % | Morula (%) (bovine NT embryos; Table 3: oocytes matured 16-17 hr, 0.2 μg/ml for 2-3 h, 44 of 90 embryos cultured): 44 (48.9)^a % | 2-cell (%) (bovine NT embryos; Table 3: oocytes matured 16-17 hr, 0.2 μg/ml for 2-3 h, 76 of 90 embryos cultured): 76 (84.4) % | cleavage of NT embryos (bovine NT embryos; among treatment groups, vs controls, 0.2 μg/ml for 2-3 hr): no difference | rate of hatched blastocysts vs untreated groups (bovine NT embryos; colcemid groups vs untreated groups): much higher | rate of morula and blastocyst development vs untreated groups (bovine NT embryos; culture in SCR or BCR media): improved | Blastocyst (%) (bovine NT embryos; culture system BCR, oocytes matured 16-17 hours, 0.2 μg/ml for 2-3 hours, 20 of 110 cloned embryos, 5% CO2 in air): 18.6% and 20 (18.2)^c % | Morula (%) (bovine NT embryos; culture system BCR, oocytes matured 16-17 hours, 0.2 μg/ml for 2-3 hours, 27 of 110 cloned embryos): 27 (24.5)^b % | 2-cell (%) (bovine NT embryos; culture system BCR, oocytes matured 16-17 hours, 0.2 μg/ml for 2-3 hours, 81 of 110 cloned embryos): 81 (73.6) % | Hatched blastocyst (%) (bovine NT embryos; culture system BCR, oocytes matured 16-17 hours, 0.2 μg/ml for 2-3 hours, 110 cloned embryos): 0% | Hatched blastocyst (%) (bovine NT embryos; culture system SCR and co-culture, oocytes matured 16-17 hours, 0.2 μg/ml for 2-3 hours, 19 of 86 cloned embryos): 19 (22.0)^a % | Blastocyst (%) (bovine NT embryos; culture system SCR and co-culture, oocytes matured 16-17 hours, 0.2 μg/ml for 2-3 hours, 34 of 86 cloned embryos): 39.5% and 34 (39.5)^a % | Morula (%) (bovine NT embryos; culture system SCR and co-culture, oocytes matured 16-17 hours, 0.2 μg/ml for 2-3 hours, 42 of 86 cloned embryos): 42 (48.8)^a % | 2-cell (%) (bovine NT embryos; culture system SCR and co-culture, oocytes matured 16-17 hours, 0.2 μg/ml for 2-3 hours, 74 of 86 cloned embryos): 74 (86.0) % | Hatched blastocyst (%) (bovine NT embryos; culture system SCR, oocytes matured 16-17 hours, 0.2 μg/ml for 2-3 hours, 5 of 135 cloned embryos): 5 (3.7)^b % | Blastocyst (%) (bovine NT embryos; culture system SCR, oocytes matured 16-17 hours, 0.2 μg/ml for 2-3 hours, 31 of 135 cloned embryos): 31 (23.0)^b % | Morula (%) (bovine NT embryos; culture system SCR, oocytes matured 16-17 hours, 0.2 μg/ml for 2-3 hours, 41 of 135 cloned embryos): 41 (30.3)^b % | 2-cell (%) (bovine NT embryos; culture system SCR, oocytes matured 16-17 hours, 0.2 μg/ml for 2-3 hours, 96 of 135 cloned embryos): 96 (71.1) % | Hatching Blastocyst (%) (bovine NT embryos; oocytes matured 14-15 hr, without PB1, 0.2 μg/ml for 2-3 hr, 26 of 100 embryos cultured): 26 (26)^a % | Blastocyst (%) (bovine NT embryos; oocytes matured 14-15 hr, without PB1, 0.2 μg/ml for 2-3 hr, 40 of 100 embryos cultured): 40% and 40 (40)^a % | Morula (%) (bovine NT embryos; oocytes matured 14-15 hr, without PB1, 0.2 μg/ml for 2-3 hr, 48 of 100 embryos cultured): 48 (48) % | 2-cell (%) (bovine NT embryos; oocytes matured 14-15 hr, without PB1, 0.2 μg/ml for 2-3 hr, 85 of 100 embryos cultured): 85 (85) % | Hatching Blastocyst (%) (bovine NT embryos; oocytes matured 16-17 hr, with PB1, 0.2 μg/ml for 2-3 hr, 21 of 81 embryos cultured): 21 (25.9)^a % | Blastocyst (%) (bovine NT embryos; oocytes matured 16-17 hr, with PB1, 0.2 μg/ml for 2-3 hr, 36 of 81 embryos cultured): 44.4% and 36 (44.4)^a % | Morula (%) (bovine NT embryos; oocytes matured 16-17 hr, with PB1, 0.2 μg/ml for 2-3 hr, 45 of 81 embryos cultured): 45 (55.6) % | 2-cell (%) (bovine NT embryos; oocytes matured 16-17 hr, with PB1, 0.2 μg/ml for 2-3 hr, 69 of 81 embryos cultured): 69 (85.2) % | Hatching Blastocyst (%) (bovine NT embryos; oocytes matured 16-17 hr, without PB1, 0.2 μg/ml for 2-3 hr, 22 of 90 embryos cultured): 22 (24.2)^a % | Blastocyst (%) (bovine NT embryos; oocytes matured 16-17 hr, without PB1, 0.2 μg/ml for 2-3 hr, 38 of 90 embryos cultured): 42.2% and 38 (42.2)^a % | Morula (%) (bovine NT embryos; oocytes matured 16-17 hr, without PB1, 0.2 μg/ml for 2-3 hr, 44 of 90 embryos cultured): 44 (48.9) % | 2-cell (%) (bovine NT embryos; oocytes matured 16-17 hr, without PB1, 0.2 μg/ml for 2-3 hr, 76 of 90 embryos cultured): 76 (84.4) % | Blastocyst (%) (bovine NT embryos; oocytes matured 16-17 hr, 0.2 μg/ml for 5-6 h, 32 of 76 embryos cultured): 32 (42.1)^a % | Morula (%) (bovine NT embryos; oocytes matured 16-17 hr, 0.2 μg/ml for 5-6 h, 37 of 76 embryos cultured): 37 (48.7)^a % | 2-cell (%) (bovine NT embryos; oocytes matured 16-17 hr, 0.2 μg/ml for 5-6 h, 69 of 76 embryos cultured): 69 (90.8) % | Blastocyst (%) (bovine NT embryos; oocytes matured 16-17 hr, 0.4 μg/ml for 2-3 h, 32 of 73 embryos cultured): 32 (43.8)^a % | Morula (%) (bovine NT embryos; oocytes matured 16-17 hr, 0.4 μg/ml for 2-3 h, 37 of 73 embryos cultured): 37 (50.7)^a % | 2-cell (%) (bovine NT embryos; oocytes matured 16-17 hr, 0.4 μg/ml for 2-3 h, 66 of 73 embryos cultured): 66 (90.4) % | Blastocyst (%) (bovine NT embryos; oocytes matured 16-17 hr, 0.4 μg/ml for 5-6 h, 31 of 81 embryos cultured): 31 (38.8)^a % | Morula (%) (bovine NT embryos; oocytes matured 16-17 hr, 0.4 μg/ml for 5-6 h, 39 of 81 embryos cultured): 39 (48.1)^a % | 2-cell (%) (bovine NT embryos; oocytes matured 16-17 hr, 0.4 μg/ml for 5-6 h, 66 of 81 embryos cultured): 66 (81.5) % | Blastocyst (%) (bovine NT embryos; oocytes matured 19-20 hr, with PB1, 0.2 μg/ml for 2-3 hr, 30 of 107 embryos cultured): 30 (28.0)^b % | Morula (%) (bovine NT embryos; oocytes matured 19-20 hr, with PB1, 0.2 μg/ml for 2-3 hr, 38 of 107 embryos cultured): 38 (35.5) % | 2-cell (%) (bovine NT embryos; oocytes matured 19-20 hr, with PB1, 0.2 μg/ml for 2-3 hr, 88 of 107 embryos cultured): 88 (82.2) % | Hatching Blastocyst (%) (bovine NT embryos; oocytes matured 19-20 hr, with PB1, 0.2 μg/ml for 2-3 hr, printed count 6, 107 embryos cultured): 6 (15.0)^b % | Hatching Blastocyst (%) (bovine NT embryos; oocytes matured 19-20 hr, without PB1, 0.2 μg/ml for 2-3 hr, 14 of 66 embryos cultured): 14 (21.2)^a % | Blastocyst (%) (bovine NT embryos; oocytes matured 19-20 hr, without PB1, 0.2 μg/ml for 2-3 hr, 25 of 66 embryos cultured): 38% and 25 (37.9)^a % | Morula (%) (bovine NT embryos; oocytes matured 19-20 hr, without PB1, 0.2 μg/ml for 2-3 hr, 32 of 66 embryos cultured): 32 (48.5) % | 2-cell (%) (bovine NT embryos; oocytes matured 19-20 hr, without PB1, 0.2 μg/ml for 2-3 hr, 56 of 66 embryos cultured): 56 (84.8) % | average blastocyst development rate (bovine NT embryos; under 5% CO2 in air, especially oocytes matured for 14 to 17 hr and treated with colcemid): over 40%
